Results reported in US11370774B2, “Substituted benzofuran, benzopyrrole, benzothiophene, and structurally related complement inhibitors” (BioCryst Pharmaceuticals, Inc., priority 2018, dated 2022).

Each compound was assayed against Factor D (Homo sapiens (Human), UniProt P00746) (assay: Factor D esterolytic assay (Z-Lys-SBzl substrate, DTNB, 405 nm)). Conditions: Z-Lys-SBzl 1.29 mM, pH 7.5, 10% DMSO, tested a minimum of three times, read-out: Measured Ki (IC50) Value for Compounds: IC50.
Assay type: biochemical
Summary of the method: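 Human Factor D ([…]) with 1.29 mM Z-Lys-SBzl in 100 mM HEPES, 500 mM NaCl, pH 7.5, 10% DMSO; substrate added immediately or after room-temperature preincubation. Released thiol reacted with DTNB, rate followed at 405 nm for 600 sec, 690 nm background subtracted. IC50 from percent inhibition versus uninhibited rate, n≥3.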

Factor D, sequence (P00746 26-253): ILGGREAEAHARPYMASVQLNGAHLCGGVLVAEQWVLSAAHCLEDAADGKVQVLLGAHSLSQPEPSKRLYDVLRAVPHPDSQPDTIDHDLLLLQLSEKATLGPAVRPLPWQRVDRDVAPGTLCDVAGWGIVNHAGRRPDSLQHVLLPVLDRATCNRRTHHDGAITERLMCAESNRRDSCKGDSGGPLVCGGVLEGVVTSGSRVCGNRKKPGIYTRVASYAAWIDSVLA

Row | Compound | IC50
1 | NCc1cccc(-c2cc(COc3ccc(CN)cc3CC(=O)O)cc3ccoc23)c1 [Compound 331c, 2-(5-(aminomethyl)-2-((7-(3-(aminomethyl)phenyl)benzofuran-5-yl)methoxy)phenyl)acetic acid] | < 1 µM
2 | Cn1ccc(NCc2cc3cc(COc4ccccc4CC(=O)O)cc(-c4cccc(CN)c4)c3o2)n1 [Compound 372c, 2-(2-((7-(3-(aminomethyl)phenyl)-2-(((1-methyl-1H-pyrazol-3-yl)amino)methyl)benzofuran-5-yl)methoxy)phenyl)acetic acid] | < 1 µM
3 | NCc1cccc(-c2cc(COc3ccccc3CC(=O)O)cc3c2OCC3)c1 [Compound 43d, 2-(2-((7-(3-(aminomethyl)phenyl)-2,3-dihydrobenzofuran-5-yl)methoxy)phenyl)acetic acid] | < 1 µM
4 | NCc1cccc(-c2cc(C(=O)Nc3ccccc3CC(=O)O)c3nccn3n2)c1 [Compound 27f, 2-(2-(6-(3-(aminomethyl)phenyl)imidazo[1,2-b]pyridazine-8-carboxamido)phenyl)acetic acid] | > 10 µM
5 | Cc1oc2c(-c3cccc(CN)c3)cc(COc3ccccc3CC(=O)O)cc2c1C [Compound 333g, 2-(2-((7-(3-(aminomethyl)phenyl)-2,3-dimethylbenzofuran-5-yl)methoxy)phenyl)acetic acid] | < 1 µM
6 | NCc1cccc(-c2cc(COc3ccccc3C(NC(=O)CCc3ccccc3)C(=O)O)cc3ccoc23)c1 (stereo not drawn) [Compound 253f, 2-(2-((7-(3-(aminomethyl)phenyl)benzofuran-5-yl)methoxy)phenyl)-2-(3-phenylpropanamido)acetic acid] | < 1 µM
7 | NCc1ccnc(-c2cc(COc3ccccc3CC(=O)O)cc3ccoc23)c1 [Compound 110c, 2-(2-((7-(4-(aminomethyl)pyridin-2-yl)benzofuran-5-yl)methoxy)phenyl)acetic acid] | < 1 µM
8 | CC(=O)Nc1ccc(CC(=O)O)c(OCc2cc(-c3ccnc(CN)c3)c3occc3c2)c1 [Compound 437c, 2-(4-acetamido-2-((7-(2-(aminomethyl)pyridin-4-yl)benzofuran-5-yl)methoxy)phenyl)acetic acid] | < 1 µM
9 | N#Cc1ccc(CC(=O)O)c(OCc2cc(-c3ccnc(CN)c3F)c3occc3c2)c1 [Compound 435b, 2-(2-((7-(2-(aminomethyl)-3-fluoropyridin-4-yl)benzofuran-5-yl)methoxy)-4-cyanophenyl)acetic acid] | < 1 µM
10 | CCc1ccc(CC(=O)O)c(OCc2cc(-c3ccnc(CN)c3)c3oc(F)cc3c2)c1 [Compound 390c, 2-(2-((7-(2-(aminomethyl)pyridin-4-yl)-2-fluorobenzofuran-5-yl)methoxy)-4-ethylphenyl)acetic acid] | < 1 µM
11 | COc1cncc(NCc2cc3cc(COc4ccccc4CC(=O)O)cc(-c4cccc(CN)c4)c3o2)c1 [Compound 279c, 2-(2-((7-(3-(aminomethyl)phenyl)-2-(((5-methoxypyridin-3-yl)amino)methyl)benzofuran-5-yl)methoxy)phenyl)acetic acid] | < 1 µM
12 | CC(=O)Nc1ccc(CC(=O)O)c(OCc2cc(-c3ccnc(CN)c3F)c3occc3c2)c1 [Compound 438c, 2-(4-acetamido-2-((7-(2-(aminomethyl)-3-fluoropyridin-4-yl)benzofuran-5-yl)methoxy)phenyl)acetic acid] | < 1 µM
13 | NCc1nccc(-c2cc(COc3ccccc3CC(=O)O)cc3[nH]ccc23)c1F [Compound 12c, 2-(2-((4-(2-(aminomethyl)-3-fluoropyridin-4-yl)-1H-indol-6-yl)methoxy)phenyl)acetic acid] | < 1 µM
14 | COCc1cc2cc(COc3cc(F)ccc3CC(=O)O)cc(-c3cccc(CN)c3)c2o1 [Compound 477c, 2-(2-((7-(3-(aminomethyl)phenyl)-2-(methoxymethyl)benzofuran-5-yl)methoxy)-4-fluorophenyl)acetic acid] | < 1 µM
15 | NCc1cccc(-c2cc(COc3ccccc3CC(=O)O)cc3c(N)noc23)c1 [Compound 114j, 2-(2-((3-amino-7-(3-(aminomethyl)phenyl)benzo[d]isoxazol-5-yl)methoxy)phenyl)acetic acid] | < 1 µM
